In the test the test system is T24 urinary bladder cancer cells. In words: Fluorescence enhancement in T24 cells by separate administration of hypericin and particles. The conditions noted are these: Example 9, fluorescent dye = hypericin 1 μmol/l 1 h, then particles 0.001 w/v % 2 h, immediately after observation light irradiation. The test is classed as cell-based, human. The method, then:
A solution (100 mmol/l) of hypericin (FUJIFILM Wako Pure Chemical Corporation) in dimethyl sulfoxide (FUJIFILM Wako Pure Chemical Corporation) as a solvent was mixed into an MEM medium (MEM, GlutaMAX™ supplement (Thermo Fisher Scientific)) to form a 1 μmol/l hypericin solution. Further, an aqueous solution of light scattering particles (2) (ii) was mixed into an MEM medium to form a 0.001 w/v % light scattering particle solution. Evaluation was performed as follows. The medium of the T24 cells on a 6-well plate, obtained in Example 3, was removed by an aspirator, and thereto was added 2 ml of MEM medium (Thermo Fisher Scientific). Once again, the MEM medium was removed by an aspirator, thereto was added 2 ml of hypericin solution, and the system was cultured under conditions of 3TC and 5 v/v % CO2 for 1 hour. Then, the hypericin solution of the cells on the 6-well plate was removed by an aspirator, to the residue was added 2 ml of the light scattering particle solution, and the system was cultured under conditions of 3TC and 5 v/v % CO2 for 2 hours. […] Detection of fluorescence was performed in the same manner as in Example 5 by using an inverted fluorescence microscope and, from the images acquired, fluorescence intensities were obtained and relative fluorescence intensities were calculated.

Turning to `Cc1cc(O)c2c(=O)c3c(O)cc(O)c4c5c(O)cc(O)c6c(=O)c7c(O)cc(C)c8c1c2c(c34)c(c78)c65` [hypericin], the Relative fluorescence intensity stood at 1.0.

For the origin of these results see patent publication US20190018003A1, “TUMOR DISCRIMINATION METHOD, DIAGNOSTIC AGENT FOR TUMOR, AND SENSITIZER FOR TUMOR DIAGNOSIS” (TOTO LTD., priority 2017, published 2019).
